The values that follow come from patent US9862730B2, “Imidazothiadiazole derivatives as protease activated receptor 4 (PAR4) inhibitors for treating platelet aggregation” (BRISTOL-MYERS SQUIBB COMPANY, priority 2012, dated 2018).

The experiment concerns the target PAR4 (Homo sapiens (Human), UniProt Q96RI0). The experiment in a line: FLIPR assay in PAR4-expressing HEK293 cells (PAR4 antagonist activity, calcium mobilization). The experiment is classed as cell-based. The following applies: FLIPR assay as described in Example A. The text has this:
The FLIPR assay is an exemplary in vitro assay for measuring the activity of the PAR4 antagonists of the present invention. In this assay, intracellular calcium mobilization is induced in PAR4 expressing cells by a PAR4 agonist and calcium mobilization is monitored. See, e.g., Example A.
HEK293 cells stably expressing PAR4 were generated by a standard method of transfection of human […] cDNA expression vector or by RAGE technology from Athersys Inc. (Cleveland, Ohio) and selected based on PAR4 protein expression of mRNA expression. […] These cells express endogenous PAR1 and can elicit calcium signal upon stimulation with PAR1 agonist peptide.
Counter screens for agonist activity and PAR1 antagonist activity were also performed. Briefly, HEK293 EBNA PAR4 clone 20664.1J cells were plated 24 hrs. prior to experiment in 384 well, Poly-D-Lysine coated, black, clear bottom plates (Greiner Bio-One, Monroe, N.C.). Cells were plated at 20,000 cells/well in 20 μl growth medium and incubated at 37° C. with 5% CO2 overnight. At time of assay, media was replaced with 40 μl 1× Hank's Buffered Saline Solution (HBSS) (with 10 mM HEPES) and 20 μl test compound also diluted in 1×HBSS buffer was added at various concentrations and 0.67% DMSO final concentration on the FDSS for agonist measurement. The cells were then incubated for 30 minutes at room temperature followed by addition of 20 μl of agonist peptide for antagonist measurement on the FDSS.
As indicated above, the FLIPR assay, an in vitro assay, measures the PAR4 antagonist activity of compounds tested as described in Example A.
On the technique in general: Calcium flux is commonly read through the fluorescence of an indicator in the cells.

Chain of PAR4 (Q96RI0 18-385): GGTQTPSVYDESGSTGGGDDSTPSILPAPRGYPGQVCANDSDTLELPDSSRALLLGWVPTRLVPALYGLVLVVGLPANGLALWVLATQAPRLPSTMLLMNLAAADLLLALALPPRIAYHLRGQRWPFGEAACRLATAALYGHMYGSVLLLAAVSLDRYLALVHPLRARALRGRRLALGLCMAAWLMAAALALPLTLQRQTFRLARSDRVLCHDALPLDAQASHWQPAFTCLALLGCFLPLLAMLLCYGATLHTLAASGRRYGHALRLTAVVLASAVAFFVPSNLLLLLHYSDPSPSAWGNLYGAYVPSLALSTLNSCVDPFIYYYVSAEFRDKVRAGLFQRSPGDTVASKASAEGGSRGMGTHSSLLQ

Consider `Cc1ccc2oc(-c3cn4nc(C)sc4n3)nc2c1` [Example 112, 5-Methyl-2-(2-methylimidazo[2,1-b][1,3,4]thiadiazol-6-yl)benzo[d]oxazole], for which the IC50 – broadly, the point on the concentration scale where inhibition reaches its midpoint – amounted to 382 nM.
In the case of `COc1nn2cc(-c3nc4cc(Cl)ccc4o3)nc2s1` [Example 130], the IC50 stood at 41.3 nM.
Take `CCOC(=O)COc1cccc2cc(-c3cn4nc(CC)sc4n3)oc12` [Example 62]: the IC50 was 587 nM.
Turning to `COc1cc(OCc2cccc(OCc3ccc(F)c(C(F)(F)F)c3)c2)c2cc(-c3cn4nc(OC)sc4n3)oc2c1` [Example 315], the half-inhibitory concentration (IC50) turned out to be 8.88 nM.
On to `CSc1nn2cc(-c3nc4c(OC[C@@H]5CCCN5C(=O)[C@H](NC(=O)OC(C)(C)C)c5ccccc5)cccc4o3)nc2s1` [Example 334, tert-Butyl ((R)-2-((S)-2-(((2-(2-(methylthio)imidazo[2,1-b][1,3,4]thiadiazol-6-yl)benzo[d]oxazol-4-yl)oxy)methyl)pyrrolidin-1-yl)-2-oxo-1-phenylethyl)carbamate], for which the 50% inhibitory concentration (IC50) turned out to be 2360 nM.
Take `CSc1nn2cc(-c3nc4c(OCc5ccc(C(F)(F)F)cc5)cccc4o3)nc2s1` [Example 155]: the half-maximal inhibitory concentration (IC50) is 301 nM.
Turning to `COc1cc(OCc2cccc(OCc3ccccc3)c2)c2oc(-c3cn4nc(OC)sc4n3)cc2c1` [Example 409, 6-(7-((3-(Benzyloxy)benzyl)oxy)-5-methoxybenzofuran-2-yl)-2-methoxyimidazo[2,1-b][1,3,4]thiadiazole], the IC50 turned out to be 3710 nM.
`CC(F)(F)c1nn2cc(-c3cc4c(Cl)cc(Cl)cc4o3)nc2s1` [Example 238]: the half-maximal inhibitory concentration (IC50) worked out at 42.5 nM.
The same measure for `CSc1nn2cc(-c3cc4c(OCc5cccc(OCc6ccccc6)c5)cc(OS(=O)(=O)C(F)(F)F)cc4o3)nc2s1` [Example 420]: 51.1 nM; for `COc1nn2cc(-c3cc4c(F)cccc4o3)nc2s1` [Example 279]: 3.46 nM; for `COc1nn2cc(-c3cc4c(OCc5cccc(OCc6ccccc6)c5)cccc4o3)nc2s1` [Example 413, 6-(4-((3-(Benzyloxy)benzyl)oxy)benzofuran-2-yl)-2-methoxyimidazo[2,1-b][1,3,4]thiadiazole]: 1.82 nM.
As to `COc1cc(OCc2cccc(OCc3cc(F)cc(OCc4ccccc4)c3)c2)c2cc(-c3cn4nc(OC)sc4n3)oc2c1` [Example 395], the IC50 is 38.3 nM.
Consider `COc1cc(OCc2cccc(OCc3ccc(Cl)cc3Cl)c2)c2cc(-c3cn4nc(OC)sc4n3)oc2c1` [Example 378], for which the 50% inhibitory concentration (IC50) came to 7.38 nM.
Turning to `CCCOc1cccc2cc(-c3cn4nc(CC)sc4n3)oc12` [Example 56], the IC50 is 601 nM.
Regarding `CC(F)(F)c1nn2cc(-c3cc4c(F)cccc4o3)nc2s1` [Example 273], the IC50 stood at 180 nM.
For the molecule `CC(F)(F)c1nn2cc(-c3cc4ccc(Cl)cc4o3)nc2s1` [Example 237], the IC50 turned out to be 28.8 nM.
Take `COc1nn2cc(-c3cc4c(Br)ccc(OC)c4o3)nc2s1` [Example 289]: the 50% inhibitory concentration (IC50) was 29.6 nM.
For the molecule `COc1nn2cc(-c3cc4ccc(C)cc4o3)nc2s1` [Example 90], the IC50 amounted to 4.7 nM.
Take `COc1nn2cc(-c3cc4cc(Cl)ccc4o3)nc2s1` [Example 91]: the half-inhibitory concentration (IC50) amounted to 19.1 nM.
For the molecule `COc1cc(OC[C@@H]2COC(C)(C)O2)c2cc(-c3cn4nc(OC)sc4n3)oc2c1` [Example 339, (R)-6-(4-((2,2-Dimethyl-1,3-dioxolan-4-yl)methoxy)-6-methoxybenzofuran-2-yl)-2-methoxyimidazo[2,1-b][1,3,4]thiadiazole], the IC50 is 0.87 nM.
The same measure for `CSc1nn2cc(-c3nc4ccc(OCCN5CCCC5)cc4o3)nc2s1` [Example 114, 2-(2-(Methylthio)imidazo[2,1-b][1,3,4]thiadiazol-6-yl)-6-(2-(pyrrolidin-1-yl)ethoxy)benzo[d]oxazole]: 206 nM.
The same measure for `COc1cc2oc(-c3cn4nc(SC)sc4n3)cc2cc1Br` [Example 261]: 4.53 nM.
Consider `COc1cc(OCc2cccc(OCc3cc(F)c(F)c(F)c3)c2)c2cc(-c3cn4nc(OC)sc4n3)oc2c1` [Example 328], for which the IC50 is 4.5 nM.
The same measure for `COc1ccc2cc(-c3cn4nc(SC)sc4n3)oc2c1` [Example 20]: 3.53 nM; for `COc1ccc2c(C)c(-c3cn4nc(SC)sc4n3)oc2c1` [Example 106]: 13.9 nM.
As for `COc1cc(OCc2ccccc2)c2nc(-c3cn4nc(SC)sc4n3)oc2c1` [Example 119, 4-(Benzyloxy)-6-methoxy-2-(2-(methylthio)imidazo[2,1-b][1,3,4]thiadiazol-6-yl)benzo[d]oxazole], the IC50 came to 10.6 nM.
With `CSc1nn2cc(-c3nc4c(OC[C@H]5CCCN5C(=O)OC(C)(C)C)cccc4o3)nc2s1` [Example 331, (R)-tert-Butyl 2-(((2-(2-(methylthio)imidazo[2,1-b][1,3,4]thiadiazol-6-yl)benzo[d]oxazol-4-yl)oxy)methyl)pyrrolidine-1-carboxylate], the 50% inhibitory concentration (IC50) is 84.3 nM.
For the molecule `CCc1nn2cc(-c3nc4ccc(OC5CCCCC5)cc4o3)nc2s1` [Example 80], the IC50 came to 695 nM.
`COc1cc(OCc2cccc(OCc3ccc(C)c(Cl)c3)c2)c2cc(-c3cn4nc(OC)sc4n3)oc2c1` [Example 324]: the IC50 was 3.52 nM.
The same measure for `COc1nn2cc(-c3cc4c(OCc5cccc(C#N)c5)cccc4o3)nc2s1` [Example 281]: 1340 nM; for `COCOc1cccc2oc(-c3cn4nc(SC)sc4n3)nc12` [Example 163]: 39.5 nM; for `CSc1nn2cc(-c3nc4ccc(OCc5ccc(Cl)cc5)cc4o3)nc2s1` [Example 169]: 70.5 nM.
As to `COc1nn2cc(-c3cc4cc(Cl)c(OC)cc4o3)nc2s1` [Example 201, 2-Methoxy-6-(5-chloro-6-methoxybenzofuran-2-yl)imidazo[2,1-b][1,3,4]thiadiazole], the IC50 worked out at 4.38 nM.
`Clc1cc(Cl)c2cc(-c3cn4nc(Br)sc4n3)oc2c1` [Example 288]: the IC50 turned out to be 94.1 nM.
The same measure for `COc1nn2cc(-c3cc4c(C(F)(F)F)cc(C)nc4o3)nc2s1` [Example 305]: 13.6 nM; for `CSc1nn2cc(-c3nc4c(OC[C@H]5CCCN5C(=O)[C@H](NC(=O)c5ccccc5)c5ccccc5)cccc4o3)nc2s1` [Example 335, N—((R)-2-((R)-2-(((2-(2-(Methylthio)imidazo[2,1-b][1,3,4]thiadiazol-6-yl)benzo[d]oxazol-4-yl)oxy)methyl)pyrrolidin-1-yl)-2-oxo-1-phenylethyl)benzamide]: 537 nM; for `CCOc1cccc2cc(-c3cn4nc(CC)sc4n3)oc12` [Example 13, 6-(7-Ethoxybenzofuran-2-yl)-2-ethylimidazo[2,1-b][1,3,4]thiadiazole]: 147 nM.
In the case of `CCOc1cc(OC)cc2oc(-c3cn4nc(Br)sc4n3)cc12` [Example 267], the 50% inhibitory concentration (IC50) came to 7.53 nM.
The value for `CSc1nn2cc(-c3nc4cc(OC(F)(F)F)ccc4o3)nc2s1` [Example 139] was 80.4 nM.
On to `COc1cc2oc(-c3cn4nc(C(C)F)sc4n3)cc2cc1Cl` (stereo in doubt) [270A], for which the concentration for half-maximal inhibition (IC50) came to 114 nM.
`CNc1nn2cc(-c3cc4ccccc4o3)nc2s1` [Example 69]: the 50% inhibitory concentration (IC50) was 407 nM.
`CSc1nn2cc(-c3nc4ccc(OCC5CC5)cc4o3)nc2s1` [Example 174]: the IC50 came out at 167 nM.
For `COc1cc(OCc2cccc(OCc3cc(C(F)(F)F)ccc3C)c2)c2cc(-c3cn4nc(OC)sc4n3)oc2c1` [Example 396], the IC50 came to 4.51 nM.
